{"source": "ChEMBL document CHEMBL6134843", "about": "“HDAC11 Inhibition as a Potential Therapeutic Strategy for AML: Target Identification, Lead Discovery, Antitumor Potency, and Mechanism Investigation” (J Med Chem, 2025)", "key": {"[1]": {"target": "Histone deacetylase 4 (Homo sapiens, UniProt P56524)", "sequence (P56524 whole entry)": "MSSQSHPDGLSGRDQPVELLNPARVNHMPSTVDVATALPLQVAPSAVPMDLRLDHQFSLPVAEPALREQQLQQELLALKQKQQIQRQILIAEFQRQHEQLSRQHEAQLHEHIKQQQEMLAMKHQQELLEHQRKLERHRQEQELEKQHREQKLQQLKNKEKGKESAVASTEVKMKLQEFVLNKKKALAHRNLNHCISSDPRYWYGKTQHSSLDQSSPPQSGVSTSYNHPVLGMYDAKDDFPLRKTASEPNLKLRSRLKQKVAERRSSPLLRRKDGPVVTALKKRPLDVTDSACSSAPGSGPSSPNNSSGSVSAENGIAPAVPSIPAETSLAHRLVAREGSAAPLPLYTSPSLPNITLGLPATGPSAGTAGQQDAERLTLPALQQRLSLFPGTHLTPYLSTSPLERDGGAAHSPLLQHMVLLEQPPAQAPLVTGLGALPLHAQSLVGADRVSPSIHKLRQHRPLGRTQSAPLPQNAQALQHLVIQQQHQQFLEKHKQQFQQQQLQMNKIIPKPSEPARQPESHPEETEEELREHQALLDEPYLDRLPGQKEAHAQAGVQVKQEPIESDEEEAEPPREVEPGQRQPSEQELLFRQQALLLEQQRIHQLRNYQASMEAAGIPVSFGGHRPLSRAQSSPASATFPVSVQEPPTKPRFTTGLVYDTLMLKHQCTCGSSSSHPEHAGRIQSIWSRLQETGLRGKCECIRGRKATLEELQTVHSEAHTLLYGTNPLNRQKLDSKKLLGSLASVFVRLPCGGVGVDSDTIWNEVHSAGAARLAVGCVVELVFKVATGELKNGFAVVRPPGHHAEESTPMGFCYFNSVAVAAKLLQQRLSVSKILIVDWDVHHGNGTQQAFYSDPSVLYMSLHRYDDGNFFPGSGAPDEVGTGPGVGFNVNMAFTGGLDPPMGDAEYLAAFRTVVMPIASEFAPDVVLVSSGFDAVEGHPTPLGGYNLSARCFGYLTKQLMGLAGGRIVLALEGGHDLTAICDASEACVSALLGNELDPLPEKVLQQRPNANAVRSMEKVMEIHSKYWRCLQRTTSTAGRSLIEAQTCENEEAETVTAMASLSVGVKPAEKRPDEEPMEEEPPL", "test": "Inhibition of N-terminal GST-tagged C-terminal His-tagged human HDAC4 (627 to 1084 end residues) expressed in baculovirus expression system in Sf9 cells using Boc-Lys-(trifluoroacetyl)-AMC as substrate preincubated with enzyme for 1 hr followed by substrate addition and measured after 30 mins by fluorescence analysis"}, "[2]": {"test_system": "OCI-AML2", "test": "Antiproliferative activity against human OCI-AML2 cells assessed as cell growth inhibition incubated for 2 days by CCK-8 assay", "settings": "OCI-AML2, 48 h"}, "[3]": {"test_system": "THP-1", "test": "Antiproliferative activity against human THP-1 cells assessed as cell growth inhibition incubated for 2 days by CCK-8 assay", "settings": "THP-1, 48 h"}, "[4]": {"test": "Cytotoxicity against HEK293T cells assessed as cell viability incubated for 2 days by CCK-8 assay", "type": "toxicity, cell-based, HEK-293T", "settings": "human"}, "[5]": {"test_system": "OCI-AML2", "test": "Cytotoxicity against human OCI-AML2 cells assessed as cell growth inhibition at 5 uM incubated for 24 to 48 hrs by cell counting assay", "type": "functional, cell-based", "settings": "time 24-48 hrs"}, "[6]": {"test_system": "U-937", "test": "Induction of cell cycle arrest in human U-937 cells assessed as accumulation of cells at G1 phase at 5 uM incubated for 48 hrs by EdU/DAPI staining based flow cytometry analysis", "type": "functional"}, "[7]": {"test_system": "OCI-AML2", "test": "Induction of cell cycle arrest in human OCI-AML2 cells assessed as accumulation of cells at G1 phase at 5 uM incubated for 48 hrs by EdU/DAPI staining based flow cytometry analysis", "type": "functional"}, "[8]": {"test_system": "U-937", "test": "Induction of cell differentiation in human U-937 cells assessed as increase in CD14 expression at 5 uM incubated for 48 hrs by flow cytometry analysis", "type": "functional, cell-based"}, "[9]": {"test_system": "U-937", "test": "Induction of cell differentiation in human U-937 cells assessed as increase in CD11b expression at 5 uM incubated for 48 hrs by flow cytometry analysis", "type": "functional, cell-based"}, "[10]": {"test_system": "U-937", "test": "Effect on DDIT3 gene expression in human U-937 cells at 10 uM incubated for 48 hrs by RT-qPCR", "type": "functional, cell-based"}, "[11]": {"test_system": "U-937", "test": "Induction of ferroptosis in human U-937 cells assessed as increase in cellular ROS level incubated for 48 hrs by DCFH-DA staining based flow cytometry analysis", "type": "functional, cell-based", "settings": "dose 2.5-10 µM"}, "[12]": {"test_system": "OCI-AML2", "test": "Induction of ferroptosis in human OCI-AML2 cells assessed as increase in lipid peroxidation level incubated for 48 hrs by C11-BODIPY 581/591 staining based flow cytometry analysis", "type": "functional, cell-based", "settings": "dose 2.5-10 µM"}, "[13]": {"test_system": "OCI-AML2", "test": "Induction of ferroptosis in human OCI-AML2 cells assessed as increase in cellular ROS level incubated for 48 hrs by DCFH-DA staining based flow cytometry analysis", "type": "functional, cell-based", "settings": "dose 2.5-10 µM"}, "[14]": {"test_system": "U-937", "test": "Induction of ferroptosis in human U-937 cells assessed as increase in malondialdehyde level at 5 uM incubated for 48 hrs", "type": "functional, cell-based"}, "[15]": {"test_system": "OCI-AML2", "test": "Induction of ferroptosis in human OCI-AML2 cells assessed as increase in malondialdehyde level at 5 uM incubated for 48 hrs", "type": "functional, cell-based"}, "[16]": {"test_system": "U-937", "test": "Induction of ferroptosis in human U-937 cells assessed as increase in malondialdehyde level at 5 uM incubated for 48 hrs in presence of ferrostatin-1", "type": "functional, cell-based"}, "[17]": {"test_system": "OCI-AML2", "test": "Induction of ferroptosis in human OCI-AML2 cells assessed as increase in malondialdehyde level at 5 uM incubated for 48 hrs in presence of ferrostatin-1", "type": "functional, cell-based"}, "[18]": {"test_system": "Acute myeloid leukemic cell", "test": "Induction of ferroptosis in human Acute myeloid leukemic cells assessed as upregulation of TFRC mRNA level by RT-qPCR analysis", "type": "functional, cell-based"}, "[19]": {"test_system": "Acute myeloid leukemic cell", "test": "Induction of ferroptosis in human Acute myeloid leukemic cells assessed as upregulation of FTH1 mRNA level by RT-qPCR analysis", "type": "functional, cell-based"}, "[20]": {"test_system": "Acute myeloid leukemic cell", "test": "Induction of ferroptosis in human Acute myeloid leukemic cells assessed as upregulation of FTH1 protein level at 2.5 to 10 uM by Western blot analysis", "type": "functional, cell-based", "settings": "dose 2.5-10 µM"}, "[21]": {"test_system": "OCI-AML2", "test": "Induction of ferroptosis in human OCI-AML2 cells assessed as increase in ferrous ion accumulation at 5 uM incubated for 48 hrs by RhoNox-1 staining based flow cytometry analysis", "type": "functional, cell-based"}, "[22]": {"test_system": "U-937", "test": "Induction of ferroptosis in human U-937 cells assessed as upregulation of HMOX1 level at 10 uM in presence of Zinc protoporphyrin by flow cytometry analysis", "type": "functional, cell-based"}, "[23]": {"test_system": "U-937", "test": "Induction of ferroptosis in human U-937 cells assessed as increase in cellular ROS accumulation at 10 uM in presence of Zinc protoporphyrin by flow cytometry analysis", "type": "functional, cell-based"}, "[24]": {"test_system": "U-937", "test": "Upregulation of Nrf2 transcription level in human U-937 cells by RNA-seq analysis", "type": "functional, cell-based"}, "[25]": {"test_system": "U-937", "test": "Upregulation of Nrf2 protein level in human U-937 cells at 2.5 to 10 uM incubated for 48 hrs by Western blot analysis", "type": "functional, cell-based", "settings": "dose 2.5-10 µM"}, "[26]": {"test_system": "U-937", "test": "Antiproliferative activity against human U-937 cells assessed as suppression of cell growth at 5 uM incubated for 48 hrs in presence of K67 by trypan blue staining based analysis", "type": "functional"}, "[27]": {"test": "Cmax in ICR(CD-1) mouse at 50 mg/kg, ip treated up to 24 hrs by LC-MS/MS analysis", "type": "ADME, organism-based", "settings": "in vivo"}, "[28]": {"test": "Volume of distribution at steady state in ICR(CD-1) mouse at 5 mg/kg, iv treated up to 24 hrs by LC-MS/MS analysis", "type": "ADME, organism-based", "settings": "in vivo, read-out: Vdss"}, "[29]": {"test": "MRT (0 to infinity) in ICR(CD-1) mouse at 50 mg/kg, ip treated up to 24 hrs by LC-MS/MS analysis", "type": "ADME, organism-based", "settings": "in vivo"}, "[30]": {"test": "Bioavailability in ICR(CD-1) mouse at 50 mg/kg, ip treated up to 24 hrs by LC-MS/MS analysis", "type": "ADME, organism-based", "settings": "in vivo"}, "[31]": {"test": "Antitumor activity against mouse MLL-AF9 cells allografted in female C57BL/6 mouse model assessed as GFP positive leukemic cells in peripheral blood at 50 mg/kg, ip administered once daily for 26 days by FITC staining based analysis (reference value: 30.6 %)", "type": "functional", "settings": "time 26 day"}, "[32]": {"test": "Antitumor activity against mouse MLL-AF9 cells allografted in female C57BL/6 mouse model assessed as GFP positive leukemic cells in peripheral blood at 50 mg/kg, ip administered once daily for 26 days in presence of cytarabine by FITC staining based analysis (reference value: 30.6 %)", "type": "functional", "settings": "time 26 day"}, "[33]": {"test": "Antitumor activity against mouse MLL-AF9 cells allografted in female C57BL/6 mouse model assessed as GFP positive leukemic cells in peripheral blood at 50 mg/kg, ip administered once daily for 32 days by FITC staining based analysis (reference value: 72.5 %)", "type": "functional", "settings": "time 32 day"}, "[34]": {"test": "Antitumor activity against mouse MLL-AF9 cells allografted in female C57BL/6 mouse model assessed as GFP positive leukemic cells in peripheral blood at 50 mg/kg, ip administered once daily for 32 days in presence of cytarabine by FITC staining based analysis (reference value: 72.5 %)", "type": "functional", "settings": "time 32 day"}, "[35]": {"test_system": "MLL-AF9", "test": "Antitumor activity against mouse MLL-AF9 cells allografted in female C57BL/6 mouse model assessed as reduction in splenomegaly at 50 mg/kg, ip administered once daily for 23 days", "type": "functional, organism-based", "settings": "time 23.0 day"}, "[36]": {"test_system": "MLL-AF9", "test": "Antitumor activity against mouse MLL-AF9 cells allografted in female C57BL/6 mouse model assessed as reduction in hepatomegaly at 50 mg/kg, ip administered once daily for 23 days", "type": "functional, organism-based", "settings": "time 23.0 day"}, "[37]": {"test": "Toxicity in female C57BL/6 mouse model assessed as increase in survival rate at 50 mg/kg, ip administered once daily in presence of cytarabine by Kaplan Mayer survival analysis", "type": "organism-based", "settings": "in vivo"}}, "note": "The source made the active and inactive calls. No cut-off for these calls is given here.", "data": [{"smiles": "O=C(NO)c1cccc2[nH]c(C#Cc3cccc(C(F)(F)F)c3)cc12", "values": [{"measurement": "IC50", "setting": "[1]", "result": "> 100", "unit": "µM"}, {"measurement": "IC50", "setting": "[2]", "result": 8.07, "unit": "µM"}, {"measurement": "IC50", "setting": "[3]", "result": "≤ 10", "unit": "µM"}, {"measurement": "IC50 at 2 days", "setting": "[4]", "result": 80, "unit": "µM"}, {"measurement": "Activity", "setting": "[5]", "result": "Active"}, {"measurement": "Activity", "setting": "[6]", "result": "Dose-dependent-effect"}, {"measurement": "Activity", "setting": "[7]", "result": "Dose-dependent-effect"}, {"measurement": "Activity", "setting": "[8]", "result": "Active"}, {"measurement": "Activity", "setting": "[9]", "result": "Active"}, {"measurement": "Activity", "setting": "[10]", "result": "Active"}, {"measurement": "Activity", "setting": "[11]", "result": "Dose-dependent-effect"}, {"measurement": "Activity", "setting": "[12]", "result": "Dose-dependent-effect"}, {"measurement": "Activity", "setting": "[13]", "result": "Dose-dependent-effect"}, {"measurement": "Activity", "setting": "[14]", "result": "Active"}, {"measurement": "Activity", "setting": "[15]", "result": "Active"}, {"measurement": "Activity", "setting": "[16]", "result": "inactive"}, {"measurement": "Activity", "setting": "[17]", "result": "inactive"}, {"measurement": "Activity", "setting": "[18]", "result": "Active"}, {"measurement": "Activity", "setting": "[19]", "result": "Active"}, {"measurement": "Activity", "setting": "[20]", "result": "Active"}, {"measurement": "Activity", "setting": "[21]", "result": "Active"}, {"measurement": "Activity", "setting": "[22]", "result": "Active; Partially Reversed Zinc Protoporphyrin Inhibition"}, {"measurement": "Activity", "setting": "[23]", "result": "Active"}, {"measurement": "Activity", "setting": "[24]", "result": "inactive"}, {"measurement": "Activity", "setting": "[25]", "result": "Active"}, {"measurement": "Activity", "setting": "[26]", "result": "inactive"}, {"measurement": "Cmax", "setting": "[27]", "result": 2920, "unit": "ng/mL"}, {"measurement": "Vd", "setting": "[28]", "result": 10.2, "unit": "L/kg"}, {"measurement": "MRT inf", "setting": "[29]", "result": 6.03, "unit": "h"}, {"measurement": "bioavailability", "setting": "[30]", "result": 32, "unit": "%"}, {"measurement": "Activity", "setting": "[31]", "result": 11.2, "unit": "%"}, {"measurement": "Activity", "setting": "[32]", "result": 1.74, "unit": "%"}, {"measurement": "Activity", "setting": "[33]", "result": 17.2, "unit": "%"}, {"measurement": "Activity", "setting": "[34]", "result": 4.3, "unit": "%"}, {"measurement": "Activity", "setting": "[35]", "result": "Active"}, {"measurement": "Activity", "setting": "[36]", "result": "Active"}, {"measurement": "Activity", "setting": "[37]", "result": "Non-toxic"}]}]}
